{"source": "patent US8481005B2", "about": "“Methods to prevent cytotoxicity using N-acetyl-cysteine” (priority 2006, dated 2013)", "format_in_all_cases": "cell-based", "key": {"PBMCs": {"system": "PBMCs", "assay": "PBMCs treated with HEMA or CDDP, FITC-Annexin V and PI", "conditions": "about 18 hours, highest concentration of CDDP, HEMA 0.0164M-0.00164M", "description": "The cells were then stained with FITC-Annexin V and PI according to the manufacturer's protocol."}, "active caspase 3": {"system": "active caspase 3", "assay": "Active caspase 3 staining in PBMCs treated with HEMA or CDDP", "conditions": "HEMA 0.0164M, CDDP"}, "[1]": {"system": "dental pulp stromal cells", "assay": "Cell death of rat dental pulp stromal cells with ascorbic acid", "conditions": "overnight incubation; FITC Annexin V and PI", "experimental": "Rat dental pulp stromal cells were next treated with HEMA in the presence and absence of another antioxidant, ascorbic acid. After an overnight incubation following procedures similar to those described above, levels of cell death were determined using FITC Annexin V and PI. […] Role of Cell Differentiation Studies"}, "Caspase 3": {"system": "Caspase 3", "assay": "Full length caspase 3 in keratinocytes", "conditions": "about 8 hours, NAC 20 mM", "description": "Roles of NFkB and GAPDH in HEMA-Mediated Cell Death"}, "[2]": {"system": "human dental pulp stromal cells", "assay": "VEGF by ELISA, human dental pulp stromal cells, NAC versus vitamin E (Table 5)", "conditions": "4 hours", "experimental": "(§1) Following the 4 hour incubation, cells were analyzed for apoptosis using FTIC-Annexin V and PI.\nDental pulp stromal cells were then treated as described in the preceding paragraph with supernatants removed and assayed for VEGF levels by ELISA following the 4 hour incubation."}, "[3]": {"system": "human dental pulp stromal cells", "assay": "Apoptosis of human dental pulp stromal cells, NAC versus vitamin E, 4 hours", "conditions": "HEMA (0.0082M), vitamin E (5 mM)", "experimental": "as §1"}}}
{"compound": "N.N.[Cl][Pt][Cl]", "note": "[CDDP, Cis-diaminedichloroplatinum (II)]", "values": [{"measurement": "cells remained both PI and Annexin V negative", "setting": "PBMCs", "result": 80, "unit": "%"}, {"measurement": "active caspase 3 staining", "setting": "active caspase 3", "result": 22, "unit": "%"}]}
{"compound": "O=C1O[C@H]([C@@H](O)CO)C(O)=C1O", "note": "[ascorbic acid]", "values": [{"measurement": "reversal of apoptosis induced by HEMA", "setting": "[1]", "result": "did not reverse apoptosis induced by HEMA"}]}
{"compound": "CC[C@@]1(O)C(=O)OCc2c1cc1n(c2=O)Cc2cc3ccccc3nc2-1", "note": "[camptothecin]", "values": [{"measurement": "levels of full length caspase 3 (processing of caspase 3)", "setting": "Caspase 3", "result": "moderate effect in processing of caspase 3"}]}
{"compound": "Vitamin E [Vit E]", "values": [{"measurement": "VEGF levels by ELISA, Human dental pulp stromal cells", "setting": "[2]; no HEMA, NAC (20 mM) and/or vitamin E (5 mM)", "result": 1966.2}, {"measurement": "prevention of HEMA mediated decrease in VEGF secretion", "setting": "[2]; vitamin E (5 mM)", "result": "failed to prevent the HEMA mediated decrease in VEGF secretion"}, {"measurement": "inhibition of HEMA mediated cell death", "setting": "[3]", "result": "failed to inhibit HEMA mediated cell death"}]}
